The values that follow are results of earlier work, collected in US20170202932A1, “METHODS FOR INHIBITING NEURON APOPTOSIS AND NECROSIS” (NEWSOUTH INNOVATIONS PTY LIMITED, priority 2012, published 2017).

For one data set, the system named is other TRPC channels. As to conditions: cited from earlier work.
The next data set deals with T1, TRPC3 (Homo sapiens, UniProt Q13507).
T1 sequence (Q13507 1-921): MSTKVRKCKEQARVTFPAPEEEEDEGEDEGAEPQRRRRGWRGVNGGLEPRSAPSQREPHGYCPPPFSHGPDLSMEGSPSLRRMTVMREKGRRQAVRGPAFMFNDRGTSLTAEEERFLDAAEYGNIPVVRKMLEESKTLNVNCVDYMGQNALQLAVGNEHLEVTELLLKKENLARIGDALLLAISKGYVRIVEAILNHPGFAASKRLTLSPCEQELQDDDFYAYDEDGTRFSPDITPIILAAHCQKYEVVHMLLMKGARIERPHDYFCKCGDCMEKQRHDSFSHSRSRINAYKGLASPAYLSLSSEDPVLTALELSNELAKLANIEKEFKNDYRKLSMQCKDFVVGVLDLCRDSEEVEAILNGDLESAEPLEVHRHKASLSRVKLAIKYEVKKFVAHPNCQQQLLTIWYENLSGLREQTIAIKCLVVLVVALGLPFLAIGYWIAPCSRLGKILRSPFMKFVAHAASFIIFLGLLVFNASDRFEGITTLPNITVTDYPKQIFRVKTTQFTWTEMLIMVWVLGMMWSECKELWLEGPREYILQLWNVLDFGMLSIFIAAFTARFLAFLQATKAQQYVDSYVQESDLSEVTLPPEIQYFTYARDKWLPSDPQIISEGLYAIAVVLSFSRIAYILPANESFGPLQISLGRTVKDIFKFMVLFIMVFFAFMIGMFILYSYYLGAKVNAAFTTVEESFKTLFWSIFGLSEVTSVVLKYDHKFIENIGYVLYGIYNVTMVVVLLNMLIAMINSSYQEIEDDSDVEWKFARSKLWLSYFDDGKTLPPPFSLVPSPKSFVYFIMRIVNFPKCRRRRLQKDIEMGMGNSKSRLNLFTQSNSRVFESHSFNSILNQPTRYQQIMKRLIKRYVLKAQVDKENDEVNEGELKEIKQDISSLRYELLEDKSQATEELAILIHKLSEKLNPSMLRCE
As to conditions: cited from earlier work.

Consider `CCOC(=O)c1cnn(-c2ccc(NC(=O)C(Cl)=C(Cl)Cl)cc2)c1C(F)(F)F` [Pyr3, ethyl-1-(4-(2,3,3-trichloroacrylamide)phenyl)-5-(trifluoromethyl)-1H-pyrazole-4-carboxylate], for which the “effect on other TRPC channels” value in the data set with other TRPC channels is on record as “no effect”. Besides, the “inhibition of TRPC3-mediated Ca2+ influx” value on TRPC3 was “selectively inhibit”.
